Measured values published in ChEMBL document CHEMBL1143537, “Discovery, synthesis and biological evaluation of novel glucokinase activators” (Bioorg Med Chem Lett, 2005).

Tests used:
Hexokinase-4 = molecular target: T1, Hexokinase-4 (Homo sapiens, UniProt P35557); assay: Potency in Glucokinase activation assay
T1 sequence (P35557 whole entry): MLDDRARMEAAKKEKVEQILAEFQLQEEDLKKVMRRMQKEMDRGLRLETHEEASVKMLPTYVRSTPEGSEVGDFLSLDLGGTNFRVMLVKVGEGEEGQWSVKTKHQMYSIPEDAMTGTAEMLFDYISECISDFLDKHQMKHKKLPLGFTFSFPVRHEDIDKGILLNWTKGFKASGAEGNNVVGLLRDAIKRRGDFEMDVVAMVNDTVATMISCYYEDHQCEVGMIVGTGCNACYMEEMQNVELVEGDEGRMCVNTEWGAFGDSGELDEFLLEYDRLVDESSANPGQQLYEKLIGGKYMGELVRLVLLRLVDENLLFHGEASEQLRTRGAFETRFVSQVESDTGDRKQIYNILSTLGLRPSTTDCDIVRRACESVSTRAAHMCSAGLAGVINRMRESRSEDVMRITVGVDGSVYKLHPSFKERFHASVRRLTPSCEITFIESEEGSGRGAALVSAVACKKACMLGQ

[1] = Clearance value of the compound; type: ADME, organism-based; details: rat, in vivo
[2] = Volume of distribution of the compound; type: ADME; details: rat; read-out: Activity
[3] = Half life value of the compound; type: ADME; details: rat

EC50 (Hexokinase-4) [nM]	Compound	other results
3200	CSc1ccc(OCc2ccccc2)c(/C=C/c2ccc(C(=O)O)cn2)c1	–
> 10000	COc1cc(OC)cc(OCc2ccc(C(=O)O)cn2)c1	–
> 10000	O=C(O)c1ccc(OCc2cc(OCc3ccccc3)cc(OCc3ccccc3)c2)nc1	–
> 10000	O=C(O)c1ccc(NC(=O)c2cccc(OCc3ccccc3Cl)c2OCc2ccccc2Cl)nc1	–
1780	CC(C)Oc1cc(OCCc2ccncc2)cc(C(=O)Nc2ccc(C(=O)O)cn2)c1	–
1260	CC(C)Oc1cc(OCCc2cccnc2)cc(C(=O)Nc2ccc(C(=O)O)cn2)c1	–
> 10000	O=C(O)c1ccc(CCc2cc(OCc3ccccc3)cc(OCc3ccccc3)c2)nc1	–
1330	CC(C)Oc1cc(OCCC2CCOCC2)cc(C(=O)Nc2ccc(C(=O)O)cn2)c1	–
> 10000	O=C(O)c1ccc(C(=O)Nc2cc(OCc3ccccc3)cc(OCc3ccccc3)c2)nc1	–
> 10000	O=C(O)c1ccc(NC(=O)c2ccccc2OCc2ccccc2)nc1	–
4220	CSc1ccc(OCc2ccccc2)c(C(=O)Nc2ccc(C(=O)O)cn2)c1	–
> 10000	CSc1ccc(OCc2ccccc2)c(NC(=O)c2ccc(C(=O)O)cn2)c1	–
–	CC(C)Oc1cc(OCCc2ccsc2)cc(C(=O)Nc2ccc(C(=O)O)cn2)c1	clearance [1]: 3.8 mL/min/kg; Vd [2]: 0.3 L/kg; half-life [3]: 54 min

Compound	EC50 (Hexokinase-4) [nM]	other results
CC(C)Oc1cc(OCc2ccccc2F)cc(C(=O)Nc2ccc(C(=O)O)cn2)c1	100	–
O=C(O)c1ccc(NC(=O)c2cc(OCc3ccccc3)cc(OCc3ccccc3)c2)nc1	400	–
CC(C)Oc1cc(OCCCc2ccccc2)cc(C(=O)Nc2ccc(C(=O)O)cn2)c1	420	–
CC(C)Oc1cc(OCC2CCCC2)cc(C(=O)Nc2ccc(C(=O)O)cn2)c1	650	–
CC(C)Oc1cc(OCc2ccccc2)cc(C(=O)Nc2ccc(C(=O)O)cn2)c1	290	–
CC(C)Oc1cc(OCCC2CCCC2)cc(C(=O)Nc2ccc(C(=O)O)cn2)c1	170	–
O=C(O)c1ccc(NC(=O)c2cccc(OCc3ccccc3Cl)c2)nc1	910	–
CC(C)Oc1cc(OCCc2ccccc2)cc(C(=O)Nc2ccc(C(=O)O)cn2)c1	130	–
O=C(O)c1ccc(NC(=O)c2cc(OCc3ccccc3F)cc(OCc3ccccc3F)c2)nc1	90	–
CC(C)COc1cc(OC(C)C)cc(C(=O)Nc2ccc(C(=O)O)cn2)c1	570	–
